# Patent US20250375434A1, “SMALL MOLECULES AND METHODS FOR INDUCING CARDIOMYOCYTE PROLIFERATION” (UNIVERSITY OF VIRGINIA PATENT FOUNDATION, priority 2024, published 2025)
# Tests used:
# [1] = system: hiPSC-CMs (iCell Cardiomyocytes); experiment: Live-cell proliferation assay (change in number of cells over 6 days)
# Experimental: Using the same live-cell proliferation assay we developed in the previous study [13], we confirmed the 5-point concentration-response profiles (0.1-10.0 μM) in three independent manufacturing lots of iCell Cardiomyocytes (FIG. 7). Briefly, hiPSC-CMs were stained with a low, non-toxic concentration of Hoechst 33342 and the same imaging fields of view were collected at both initial (day 0) and final (day 6) timepoints. We quantified the change in the number of cells, binucleation events, and DNA content distribution using the image segmentation and analysis pipeline described in the previous study [13].
# ICell Cardiomyocytes (Cellular Dynamics International) were seeded in 96-well or 384-well Corning CellBind plates at approximately 2.5×10^4 to 3.5×10^4 cells/cm^2. […] Cells were cultured for all experiments in a humidified environment at 37° C. with 5% CO2.
# Pharmacology Metrics—Based on concentration-dependent responses of changes in cell number, we quantified area under the curve (AUC) as the sum of the relative changes in cell number across the five concentrations of compound. As a measure of potency, we performed cubic B-spline interpolation and then calculated the minimum concentration needed to achieve 50% of the maximum effect.
# [2] = system: hiPSC-CMs (iCell Cardiomyocytes); experiment: DNA synthesis assay (48 h EdU incorporation)
# Experimental: ICell Cardiomyocytes (Cellular Dynamics International) were seeded in 96-well or 384-well Corning CellBind plates at approximately 2.5×10^4 to 3.5×10^4 cells/cm^2. Cells were cultured for 2 days in iCell Cardiomyocytes Plating Medium (Cellular Dynamics International) supplemented with 1% Penicillin/Streptomycin (P/S; Gibco) followed by an additional 4 days in iCell Cardiomyocytes Maintenance Medium (Cellular Dynamics International) supplemented with 1% P/S. For all experiments, cells were first serum starved for 4 h and then treated in William's E medium without phenol red (Gibco) supplemented with Primary Hepatocyte Cell Maintenance Cocktail B (Gibco) containing P/S, ITS+, GlutaMAX, and HEPES. Cells were cultured for all experiments in a humidified environment at 37° C. with 5% CO2.
# EdU incorporation and labeling with copper catalyzed click chemistry was used to measure DNA synthesis. Cells were treated in the presence of 1 μM EdU (Invitrogen) for 48 h, and subsequently fixed and permeabilized prior to incubation with the EdU click chemistry reaction mix—100 mM Tris HCL pH 7.0 (Gentrox), 4 mM CuSO4 (Sigma), 100 mM ascorbic acid (Sigma), and 5 μM Alexa Fluor 546 Azide (Click Chemistry Tools). After labelling EdU, cells were stained with anti-Cardiac Troponin T (Abcam) and DAPI (Sigma).
# Custom image analysis and processing pipelines were developed and implemented in MATLAB to quantify the number of nuclei/cells, percent EdU positive objects, percent Ki67 positive objects, multinucleation, DNA content, cell cycle phases, and ploidy.
# Classification—The binary segmented mask and background subtracted images were used to calculate the mean intensities of Hoechst 33342, DAPI, Cardiac-Troponin T, EdU, and Ki67 staining for each segmented object. […] Marker positivity thresholds were determined using Rosin's unimodal thresholding algorithm [63] on the mean intensity values for each segmented object.
# [3] = system: hiPSC-CMs (iCell Cardiomyocytes); experiment: Multinucleation analysis after 6 days of treatment; type: cell-based, human; details: 10 μM inhibitor alone or with C3, compared to negative control or compound treatment alone
# Experimental: Multinucleation Analysis—Multinucleated cells were identified based on the distance between neighboring nuclei. This distance threshold was determined using Cardiac-Troponin T staining to visualize cell borders. A morphological closing operation with a circular structuring element was applied to the binary segmented mask to merge and classify nuclei in multinucleated cells.
# [4] = system: hiPSC-CMs (iCell Cardiomyocytes); experiment: DNA content / ploidy and cell cycle phase analysis after 6 days of treatment
# VEGFR2 (KDR) = details: 12 h treatment, compared to the DMSO negative control
# Experimental: To further investigate the role of RTKs in compound-induced proliferation, we profiled the activity of 49 RTKs using a specialized array with the same protein lysates used for the RPPA.
# Cells were seeded in 60 mm Corning CellBind dishes, cultured for 6 days, serum starved for 4 h, and treated with compounds for 12 h with 3 replicates. At the end of the experiment, cells were treated with 1 mM peroxyvanadate (1 mM NaVO3, 0.1 μg/mL Catalase, 0.003% H2O2) for 15 min prior to cell lysis. Cells were then rinsed with ice-cold 1×PBS and lysed on ice for 15 min with lysis buffer (50 mM Tris-HCl pH 7.5, 150 mM NaCl, 0.1 mM EDTA, 1 mM DTT, 1 mM NaVO3, 0.5% TritonX-100) containing protease inhibitor cocktail (Sigma). Cell lysates were mechanically homogenized using 28-gauge syringes, spun down, and adjusted to equivalent concentrations. The Proteome Profiler Human Phospho-RTK Array Kit (R&D Systems) was used to measure phosphorylation activity of 49 RTKs. Briefly, the arrays with printed anti-RTK antibodies were blocked for 1 hour and incubated with 38.8 μg of total protein lysate overnight at 4° C. The arrays were then washed and incubated with anti-phospho-tyrosine antibodies conjugated to HRP and detected via chemiluminescence. Array films were scanned and Image Studio software (LI-COR) was used to quantify intensities of each spot. […]
smiles,measurement,setting,value
C[C@]1(O)C[C@@H](c2nc(-c3ccc4ccc(-c5ccccc5)nc4c3)c3c(N)nccn32)C1 [linsitinib],effect of inhibitor on late-stage proliferation metrics,"[1]; 0.1 μM inhibitor in combination with 3.2 μM C3, day 6",no effect
same,effect of inhibitor on C3 induced DNA synthesis,"[2]; 0.1 μM inhibitor in combination with 3.2 μM C3, 48 hrs",modest effect in reducing
CNC(=O)c1ccccc1Sc1ccc2c(/C=C/c3ccccn3)n[nH]c2c1 [axitinib],increase in multinucleation,[3],over 2 fold
"Cc1cccc(-c2n[nH]cc2-c2ccc3ncccc3n2)n1 [C3, RepSox]",endoreplication cycles,[4],without additional endoreplication cycles
same,maximum-effect concentration,"[1]; 5-point concentration response 0.1-10 μM, 6 days",3.2 µM
same,proliferation (change in the number of cells over 6 days),"[1]; compound alone at Emax concentration, 6 days",induces proliferation
same,VEGFR2 (KDR) activation / expression,VEGFR2 (KDR),induced
COc1cccc(-c2cc(=O)c3ccccc3o2)c1N [PD98059],effect of inhibitor on C3 induced proliferation (increase in cell numbers),"[1]; 10 μM inhibitor in combination with 3.2 μM C3, day 6",only INK and PI3K inhibition attenuated
same,effect of inhibitor alone on DNA synthesis (EdU incorporation),"[2]; 10 μM inhibitor alone, unstimulated hiPSC-CMs, 48 h",modest decreases
same,effect of inhibitor on C3 induced DNA synthesis,"[2]; 10 μM inhibitor in combination with 3.2 μM C3, 48 h",attenuated
